According to patent US11981750B2 (priority 2016, dated 2024):
Starred links: 1 amine or outer side, 2 acyl side, 3 side chain; linkers in the order of their positions; H or OH if unused. Non-standard residues stand in square brackets, D forms with d. Residues, ends and D or L forms follow the SMILES beside them. *: point of attachment. TtdDga = O=C(COCC(=O)[*:2])NCCCOCCOCCOCCCN[*:1]; Arachidoyl = CCCCCCCCCCCCCCCCCCCC(=O)*; NMeV = CN[CH](C(=O)O)C(C)C

What was measured:
[1] = tested on: anti-Map antibodies in sera from bovine infected by Map; assay: Antibody ELISA with bovine sera (Map-infected versus healthy controls); type: binding; settings: for ROC analysis of ELISA antibody response, area under the curve: 60 MAP+ bovine sera and 53 control sera
[2] = tested on: sera of animals infected by M. bovis; type: binding, bovine; settings: serial twofold dilution of sera
[3] = tested on: PBMCs isolated from control cows and cows naturally infected with Map; assay: Cytokine secretion by PBMCs after 24-hour stimulation with Map lipopeptides; type: cell-based, cattle; settings: 1, 5, 10 μg/ml
Method: Peripheral blood mononuclear cells (PBMCs) were isolated from control non-infected (n=4) and cattle naturally infected with C-type Map (n=4) to determine if lipoproteins, L3P and L5P (structures disclosed in FIG. 9), can elicit immunological responses. Sixty ml of blood was collected via jugular venipuncture into a syringe containing 2× acid-citrate-dextrose to obtain PBMCs.
PBMCs were resuspended at a final concentration of 8×10^6/ml in complete medium consisting of RPMI-1640 with 2 mM 1-glutamine and 25 mM HEPES (Gibco, Grand Island, NY) and supplemented with 10% fetal calf serum (Gibco), 100λ penicillin-streptomycin (Gibco). Cells were plated in 24-well culture plates and incubated for 24 hr at 39° C. in 5% CO2 in a humidified atmosphere with the following treatment groups, nonstimulated (NS; negative control), pokeweed mitogen (PWM, 10 μg/ml, positive control; Sigma, St. Louis, MO), and four antigens that included whole cell sonicated extracts of Map strains K-10 and S397 (10 μg/ml); lipoproteins L3P and L5P (1, 5, 10 μg/ml concentrations). The lipoproteins had to be solubilized in 100% methanol to 1 mg/ml concentrations and then diluted in the complete medium to final concentrations indicated above. […] After a 24-hr stimulation, the supernatants were harvested by centrifugation at 400×g for 5 min. Supernatants were removed without disturbing the cells in culture and stored at −20° C. until cytokine measurement. Cytokines IFN-γ, IL-1, IL-2, IL-4, IL-6 and TNF-α were all measured using Ciraplex bovine multiplex cytokine arrays (Aushon Biosystems, Billerica, MA).

physchem = settings: organic solvents (DMSO, CHCl3, CH2Cl2, MeOH and EtOH)
[4] = tested on: sheep sera naturally or experimentally infected with S-type strains of Map; assay: Antibody ELISA with sheep sera infected with S-type strains of Map; type: binding; settings: control n=15, positive n=39
[5] = tested on: PBMCs isolated from cows naturally infected with Map; assay: Flow cytometry of CD25+ T and B cells after PBMC stimulation with lipopeptides; type: cell-based, cattle
[6] = PBMCs from infected cows, lipopeptide 1, 5, 10 μg/ml

CCC(C)C(NC(=O)C(C(C)C)N(C)C(=O)C(N)Cc1ccccc1)C(=O)NC(Cc1ccccc1)C(=O)NC(C)C(=O)NCCCOCCOCCOCCCNC(=O)COCC(=O)O (stereo not drawn) [L5P^H2O] (H-F[NMeV]IFA-TtdDga; configuration not given here)
ROC analysis of ELISA antibody response, area under the curve ([1]; antigen in PBS): 0.9453 | ROC analysis of ELISA antibody response, area under the curve ([1]; antigen in ethanol): 0.9313

CCCCCCCCCCCCCCCCCCCC(=O)N[C@H](Cc1ccccc1)C(=O)N(C)[C@H](C(=O)N[C@H](C(=O)N[C@@H](Cc1ccccc1)C(=O)N[C@@H](C)C(=O)OC)[C@@H](C)CC)C(C)C [L5P] (Arachidoyl-[dF][NMeV]IFA-OMe)
solubility in water or aqueous buffers: insoluble | cross-reaction with sera of animals infected by M. bovis [2]: does not cross-react | ROC analysis of ELISA antibody response, area under the curve ([1]; antigen in ethanol): 0.97 | effect of lipopeptide concentration on TNF-α secretion by PBMCs ([3]; P<0.0006): dose-dependent effect | IFN-γ cytokine response ([3]; 24-hr stimulation): elicited cytokine responses | IL-1β cytokine response ([3]; 24-hr stimulation): elicited cytokine responses | TNF-α cytokine response ([3]; 24-hr stimulation): elicited cytokine responses | solubility (physchem): < 1000 µg/mL | immunodetection of L5P by sheep sera (anti-L5P antibodies) [4]: less than half of the sheep sera do not appear to contain anti-L5P antibodies | CD25+ B cells response [5, 6]: stronger response compared to L3P | proliferation of CD25+ CD8 T cells [5, 6]: remained static | CD25+ CD4 or CD25+ γδ T cell populations, difference between L3P and L5P ([5]; data not shown): No significant differences

CCCCCCCCCCCCCCCCCCCC(=O)O [lipid moiety, eicosanoic acid]
ELISA antibody response against the lipid moiety of L5P, discrimination of control from infected animals ([1]; lipid solubilized in ethanol, bovine sera): does not discriminate control from infected animals
